According to patent US20260356830A1, “COMPOUNDS FOR MODULATING RET PROTEIN” (Bristol-Myers Squibb Company, priority 2022, published 2026):

Target: T1, CCDC6-RET (Homo sapiens, UniProt P07949+Q16204+Q96SW2)
T1 construct: CCDC6 (natural N-terminal fusion partner, UniProt Q16204); endogenous in cells; host or cells: TPC-1 (parental, papillary thyroid carcinoma)
Assay: Cellular RET degradation, AlphaLISA, TPC-1 cell line
Type: cell-based
Details: for Dmax: TPC1, human, 24 h, read-out: Cell Density TPC-1/CCDC6-RET Ymax %; for DC50: read-out: Cell Density TPC-1/CCDC6-RET DC50, half-maximal degradation concentration, TPC-1 (CCDC6-RET), 24 hrs
Procedure: Cellular RET degradation compound potency was determined using the bead-based luminescent amplification assay-AlphaLISA Surefire Ultra Detection Kit (Perkin-Elmer). The CCDC6-RET fusion expressing papillary thyroid carcinoma (TPC-1) cell line was selected for screening of potential degraders: Parental (TPC-1/CCDC6-RET). Cells were plated in 384 well culture plates (Greiner Bio-One) at 10,000 cells/well in 50 ul/well DMEM (Fisher Scientific) with 2% FBS serum (Gibco). […] Low normalization wells were media only and high normalization wells were cells treated with DMSO only. Treated cell plates were placed in an incubator at 37 °C and 5% CO2 for 24 hrs. At 24 hrs, cell media was removed by a FELIX automated liquid hander (Analytik Jena) and 25 ul of cell lysis buffer (provided in AlphaLisa kit) was added to each well. […] cell lysate were transferred into a 384-well microplate (Perkin Elmer) before addition of 2.5 ul AlphaLISA Acceptor Bead mix. The plates were sealed and kept at room temperature for 1 hr before addition of donor bead mixture. Donor bead addition was performed in the dark and incubated for >1 hr before AlphaLISA luminescence was measured on an Envision plate reader with an Alphascreen aperture at RT (excitation 680 nm, emission 615 nm). RET protein abundance (and therefore degradation) directly corresponds to luminescence intensity.
Intensities were normalized relative to the average values from 16 wells containing media alone (blank-low) and 16 wells containing cells +DMSO (high). % Degradation for each well was determined using the standard equation, where
DC50 (IC50) values for each compound tested are calculated by analyzing plots of % degradation versus compound concentration, and fitting to the standard 4-parameter logistic curve where,
DC50 values are calculated according to the relationship,
Compound replicates were performed in independent assays. Maximum degradation (YMax) was defined as the maximal % degradation value from the 4-parameter logistic equation, as previously described.

T1 sequence (Q16204+P07949 fused): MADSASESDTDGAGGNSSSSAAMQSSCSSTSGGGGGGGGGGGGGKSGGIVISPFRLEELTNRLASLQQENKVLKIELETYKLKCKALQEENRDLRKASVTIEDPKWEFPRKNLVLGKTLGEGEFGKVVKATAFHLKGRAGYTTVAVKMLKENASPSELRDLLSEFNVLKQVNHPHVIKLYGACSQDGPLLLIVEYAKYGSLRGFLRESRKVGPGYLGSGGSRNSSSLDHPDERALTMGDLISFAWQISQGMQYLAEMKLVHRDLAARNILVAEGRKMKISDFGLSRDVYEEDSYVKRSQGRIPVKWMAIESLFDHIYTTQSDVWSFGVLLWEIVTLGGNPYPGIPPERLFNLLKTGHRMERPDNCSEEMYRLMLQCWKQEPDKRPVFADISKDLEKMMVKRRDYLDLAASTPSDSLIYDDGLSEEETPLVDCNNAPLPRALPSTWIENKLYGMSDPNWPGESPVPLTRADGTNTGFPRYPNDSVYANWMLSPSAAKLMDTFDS
T1 sequence (Q96SW2 whole entry, the tested form may be a part): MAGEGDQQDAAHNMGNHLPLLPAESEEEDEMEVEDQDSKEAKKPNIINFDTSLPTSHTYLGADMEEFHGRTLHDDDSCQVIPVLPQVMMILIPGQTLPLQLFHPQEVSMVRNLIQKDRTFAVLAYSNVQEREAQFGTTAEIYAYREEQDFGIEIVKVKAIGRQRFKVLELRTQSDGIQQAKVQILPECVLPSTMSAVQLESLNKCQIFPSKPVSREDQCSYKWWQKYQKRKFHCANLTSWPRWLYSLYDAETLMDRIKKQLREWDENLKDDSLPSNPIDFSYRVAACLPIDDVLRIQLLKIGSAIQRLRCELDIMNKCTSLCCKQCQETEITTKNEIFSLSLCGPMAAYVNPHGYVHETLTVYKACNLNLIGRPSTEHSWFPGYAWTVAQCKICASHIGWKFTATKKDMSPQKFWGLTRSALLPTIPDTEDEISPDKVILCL
T1 sequence (Q16531 whole entry partner, the tested form may be a part): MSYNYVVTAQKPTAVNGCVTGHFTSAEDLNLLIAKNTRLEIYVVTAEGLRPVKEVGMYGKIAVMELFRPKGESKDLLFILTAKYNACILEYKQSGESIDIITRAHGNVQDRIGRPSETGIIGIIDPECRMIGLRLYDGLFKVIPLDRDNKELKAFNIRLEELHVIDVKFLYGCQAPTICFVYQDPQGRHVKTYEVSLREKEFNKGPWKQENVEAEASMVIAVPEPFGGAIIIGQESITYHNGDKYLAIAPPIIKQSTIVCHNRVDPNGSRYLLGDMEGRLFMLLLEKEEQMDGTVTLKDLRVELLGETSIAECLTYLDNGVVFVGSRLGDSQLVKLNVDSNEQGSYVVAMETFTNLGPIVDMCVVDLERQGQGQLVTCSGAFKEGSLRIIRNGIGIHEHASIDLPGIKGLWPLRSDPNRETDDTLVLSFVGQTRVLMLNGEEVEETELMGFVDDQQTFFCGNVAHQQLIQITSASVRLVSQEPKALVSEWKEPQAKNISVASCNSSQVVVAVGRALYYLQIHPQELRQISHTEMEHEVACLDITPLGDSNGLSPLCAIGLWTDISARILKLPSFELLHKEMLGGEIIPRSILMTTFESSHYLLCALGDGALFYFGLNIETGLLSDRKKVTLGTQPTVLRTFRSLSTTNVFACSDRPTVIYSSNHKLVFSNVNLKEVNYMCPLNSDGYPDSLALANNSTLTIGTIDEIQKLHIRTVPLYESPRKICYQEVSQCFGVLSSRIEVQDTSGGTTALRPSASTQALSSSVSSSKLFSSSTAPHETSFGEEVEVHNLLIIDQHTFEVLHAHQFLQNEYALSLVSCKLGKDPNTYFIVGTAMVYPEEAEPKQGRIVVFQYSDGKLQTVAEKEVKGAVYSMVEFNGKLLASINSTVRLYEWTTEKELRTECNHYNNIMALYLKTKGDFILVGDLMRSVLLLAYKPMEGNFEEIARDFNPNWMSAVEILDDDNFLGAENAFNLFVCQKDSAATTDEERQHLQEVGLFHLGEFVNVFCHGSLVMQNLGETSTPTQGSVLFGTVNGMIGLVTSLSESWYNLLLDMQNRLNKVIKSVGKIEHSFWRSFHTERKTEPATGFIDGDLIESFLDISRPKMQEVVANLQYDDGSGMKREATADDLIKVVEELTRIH

Compound | Dmax [%] | DC50 [nM]
CCOc1cc(-c2ccc(N3CCC(CN4CCN(C(=O)CCCCCCN5CCN(c6ccc7c(c6)CN(C6CCC(=O)NC6=O)C7=O)CC5)CC4)(NC(=O)c4ncccc4F)CC3)nc2)c2c(C#N)cnn2c1 (stereo not drawn) [Example 2, N-(1-(5-(3-cyano-6-ethoxypyrazolo[1,5-a]pyridin-4-yl)pyridin-2-yl)-4-((4-(7-(4-(2-(2,6-dioxopiperidin-3-yl)-1-oxoisoindolin-5-yl)piperazin-1-yl)heptanoyl)piperazin-1-yl)methyl)piperidin-4-yl)-3-fluoropicolinamide] | 60 to 90 | 2 to 10
CCOc1cc(-c2ccc(N3CCC(CN4CCN(C(=O)CCCCCCN5CCN(c6ccc7c(c6)CN(C6CCC(=O)NC6=O)C7=O)CC5)CC4)(NC(=O)CC(C)C)CC3)nc2)c2c(C#N)cnn2c1 (stereo not drawn) [Example 3, N-(1-(5-(3-cyano-6-ethoxypyrazolo[1,5-a]pyridin-4-yl)pyridin-2-yl)-4-((4-(7-(4-(2-(2,6-dioxopiperidin-3-yl)-1-oxoisoindolin-5-yl)piperazin-1-yl)heptanoyl)piperazin-1-yl)methyl)piperidin-4-yl)-3-methylbutanamide] | > 90 | 2 to 10
CCOc1cc(-c2ccc(N3CCC(CN4CCN(C(=O)CCCCN5CCN(c6ccc7c(c6)CN(C6CCC(=O)NC6=O)C7=O)CC5)CC4)(NC(=O)c4cc(F)ccc4F)CC3)nc2)c2c(C#N)cnn2c1 (stereo not drawn) [Example 5, N-(1-(5-(3-cyano-6-ethoxypyrazolo[1,5-a]pyridin-4-yl)pyridin-2-yl)-4-((4-(5-(4-(2-(2,6-dioxopiperidin-3-yl)-1-oxoisoindolin-5-yl)piperazin-1-yl)pentanoyl)piperazin-1-yl)methyl)piperidin-4-yl)-2,5-difluorobenzamide] | > 90 | 2 to 10
CCOc1cc(-c2ccc(N3CCC(CN4CCN(C(=O)CN5CCN(c6ccc7c(c6)CN(C6CCC(=O)NC6=O)C7=O)CC5)CC4)(NC(=O)c4cc(F)ccc4F)CC3)nc2)c2c(C#N)cnn2c1 (stereo not drawn) [Example 6, N-(1-(5-(3-cyano-6-ethoxypyrazolo[1,5-a]pyridin-4-yl)pyridin-2-yl)-4-((4-(2-(4-(2-(2,6-dioxopiperidin-3-yl)-1-oxoisoindolin-5-yl)piperazin-1-yl)acetyl)piperazin-1-yl)methyl)piperidin-4-yl)-2,5-difluorobenzamide] | > 90 | 2 to 10
CCOc1cc(-c2ccc(N3CCC(CN4CCN(C(=O)CCN5CCC(c6ccc7c(c6)C(=O)N(C6CCC(=O)NC6=O)C7)CC5)CC4)(NC(=O)C4CC4)CC3)nc2)c2c(C#N)cnn2c1 (stereo not drawn) [Example 9, N-(1-(5-(3-cyano-6-ethoxypyrazolo[1,5-a]pyridin-4-yl)pyridin-2-yl)-4-((4-(3-(4-(2-(2,6-dioxopiperidin-3-yl)-3-oxoisoindolin-5-yl)piperidin-1-yl)propanoyl)piperazin-1-yl)methyl)piperidin-4-yl)cyclopropanecarboxamide] | > 90 | 2 to 10
CCOc1cc(-c2ccc(N3CCC(CN4CCN(C(=O)CCN5CCN(c6ccc7c(c6)C(=O)N(C6CCC(=O)NC6=O)C7)CC5)CC4)(NC(=O)c4cc(F)ccc4F)CC3)nc2)c2c(C#N)cnn2c1 (stereo not drawn) [Example 12, N-(1-(5-(3-cyano-6-ethoxypyrazolo[1,5-a]pyridin-4-yl)pyridin-2-yl)-4-((4-(3-(4-(2-(2,6-dioxopiperidin-3-yl)-3-oxoisoindolin-5-yl)piperazin-1-yl)propanoyl)piperazin-1-yl)methyl)piperidin-4-yl)-2,5-difluorobenzamide] | > 90 | < 2
CCOc1cc(-c2ccc(N3CCC(CN4CCN(C(=O)CCCN5CCN(c6ccc7c(c6)CN(C6CCC(=O)NC6=O)C7=O)CC5)CC4)(NC(=O)c4cc(F)ccc4F)CC3)nc2)c2c(C#N)cnn2c1 (stereo not drawn) [Example 14, N-(1-(5-(3-cyano-6-ethoxypyrazolo[1,5-a]pyridin-4-yl)pyridin-2-yl)-4-((4-(4-(4-(2-(2,6-dioxopiperidin-3-yl)-1-oxoisoindolin-5-yl)piperazin-1-yl)butanoyl)piperazin-1-yl)methyl)piperidin-4-yl)-2,5-difluorobenzamide] | 60 to 90 | 2 to 10

Further lines, results first:

Dmax [%] | DC50 [nM] | Compound
> 90 | < 2 | CCOc1cc(-c2ccc(N3CCC(CN4CCN(C(=O)CCCCN5CCN(c6ccc7c(c6)C(=O)N(C6CCC(=O)NC6=O)C7)CC5)CC4)(NC(=O)c4cc(F)ccc4F)CC3)nc2)c2c(C#N)cnn2c1 (stereo not drawn) [Example 13, N-(1-(5-(3-cyano-6-ethoxypyrazolo[1,5-a]pyridin-4-yl)pyridin-2-yl)-4-((4-(5-(4-(2-(2,6-dioxopiperidin-3-yl)-3-oxoisoindolin-5-yl)piperazin-1-yl)pentanoyl)piperazin-1-yl)methyl)piperidin-4-yl)-2,5-difluorobenzamide]
> 90 | 2 to 10 | CCOc1cc(-c2ccc(N3CCC(CN4CCN(C(=O)CCCCCCN5CCN(c6ccc7c(c6)C(=O)N(C6CCC(=O)NC6=O)C7)CC5)CC4)(NC(=O)c4cc(F)ccc4F)CC3)nc2)c2c(C#N)cnn2c1 (stereo not drawn) [Example 16, N-[1-(5-{3-cyano-6-ethoxypyrazolo[1,5-a]pyridin-4-yl}pyridin-2-yl)-4-{[4-(7-{4-[2-(2,6-dioxopiperidin-3-yl)-3-oxo-2,3-dihydro-1H-isoindol-5-yl]piperazin-1-yl}heptanoyl)piperazin-1-yl]methyl}piperidin-4-yl]-2,5-difluorobenzamide]
> 90 | < 2 | CCOc1cc(-c2ccc(N3CCC(CN4CCN(C(=O)CCCCN5CCC(c6ccc7c(c6)C(=O)N(C6CCC(=O)NC6=O)C7)CC5)CC4)(NC(=O)c4cc(F)ccc4F)CC3)nc2)c2c(C#N)cnn2c1 (stereo not drawn) [Example 18, N-[1-(5-{3-cyano-6-ethoxypyrazolo[1,5-a]pyridin-4-yl}pyridin-2-yl)-4-{[4-(5-{4-[2-(2,6-dioxopiperidin-3-yl)-3-oxo-2,3-dihydro-1H-isoindol-5-yl]piperidin-1-yl}pentanoyl)piperazin-1-yl]methyl}piperidin-4-yl]-2,5-difluorobenzamide]
> 90 | 2 to 10 | CCOc1cc(-c2ccc(N3CCC(CN4CCN(C(=O)CCCCCCN5CCC(c6ccc7c(c6)C(=O)N(C6CCC(=O)NC6=O)C7)CC5)CC4)(NC(=O)c4cc(F)ccc4F)CC3)nc2)c2c(C#N)cnn2c1 (stereo not drawn) [Example 19, N-[1-(5-{3-cyano-6-ethoxypyrazolo[1,5-a]pyridin-4-yl}pyridin-2-yl)-4-{[4-(7-{4-[2-(2,6-dioxopiperidin-3-yl)-3-oxo-2,3-dihydro-1H-isoindol-5-yl]piperidin-1-yl}heptanoyl)piperazin-1-yl]methyl}piperidin-4-yl]-2,5-difluorobenzamide]
> 90 | 2 to 10 | CCOc1cc(-c2ccc(N3CCC(CN4CCN(C(=O)CCCCCCNc5ccc(C6CCC(=O)NC6=O)cc5)CC4)(NC(=O)c4cc(F)ccc4F)CC3)nc2)c2c(C#N)cnn2c1 (stereo not drawn) [Example 20, N-[1-(5-{3-cyano-6-ethoxypyrazolo[1,5-a]pyridin-4-yl}pyridin-2-yl)-4-{[4-(7-{[4-(2,6-dioxopiperidin-3-yl)phenyl]amino}heptanoyl)piperazin-1-yl]methyl}piperidin-4-yl]-2,5-difluorobenzamide]
60 to 90 | 10 to 100 | CCOc1cc(-c2ccc(N3CCC(CN4CCN(C(=O)CCCCCCCCNc5ccc(C6CCC(=O)NC6=O)cc5)CC4)(NC(=O)c4cc(F)ccc4F)CC3)nc2)c2c(C#N)cnn2c1 (stereo not drawn) [Example 21, N-[1-(5-{3-cyano-6-ethoxypyrazolo[1,5-a]pyridin-4-yl}pyridin-2-yl)-4-{[4-(9-{[4-(2,6-dioxopiperidin-3-yl)phenyl]amino}nonanoyl)piperazin-1-yl]methyl}piperidin-4-yl]-2,5-difluorobenzamide]
60 to 90 | 10 to 100 | CCOc1cc(-c2ccc(N3CCC(CN4CCN(C(=O)CCCCCCNc5cccc(NC6CCC(=O)NC6=O)c5)CC4)(NC(=O)c4cc(F)ccc4F)CC3)nc2)c2c(C#N)cnn2c1 (stereo not drawn) [Example 22, N-[1-(5-{3-cyano-6-ethoxypyrazolo[1,5-a]pyridin-4-yl}pyridin-2-yl)-4-({4-[7-({3-[(2,6-dioxopiperidin-3-yl)amino]phenyl}amino)heptanoyl]piperazin-1-yl}methyl)piperidin-4-yl]-2,5-difluorobenzamide]
> 90 | 10 to 100 | CCOc1cc(-c2ccc(N3CCC(CN4CCN(C(=O)CCCCCCCCNc5cccc(NC6CCC(=O)NC6=O)c5)CC4)(NC(=O)c4cc(F)ccc4F)CC3)nc2)c2c(C#N)cnn2c1 (stereo not drawn) [Example 23, N-[1-(5-{3-cyano-6-ethoxypyrazolo[1,5-a]pyridin-4-yl}pyridin-2-yl)-4-({4-[9-({3-[(2,6-dioxopiperidin-3-yl)amino]phenyl}amino)nonanoyl]piperazin-1-yl}methyl)piperidin-4-yl]-2,5-difluorobenzamide]
